The record followed here is patent US20260274892A1, “MACROCYCLIC BROAD SPECTRUM ANTIBIOTICS” (RQx Pharmaceuticals, Inc., priority 2017, published 2026).

The structures appear in SMILES notation.

One experiment has as its system Escherichia coli ATCC 25922. Briefly: Minimum inhibitory concentration (MIC), CLSI broth micro-dilution, E. coli. The experiment is classed as cell-based. To be noted: Escherichia coli, ATCC25922, 22 h, Table 6, cation adjusted Mueller Hinton Broth + 0.002% Tween-80, 35° C. In a few lines: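 Colonies grown 20 h at 35° C on Trypticase Soy agar (MRSA) or Luria agar (E. coli) were suspended in cation-adjusted Mueller Hinton broth with 0.002% Tween-80. Suspensions were added at OD600 0.0005 to 10-point twofold compound dilutions, then incubated 22 h at 35° C.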
One may read the MIC as the least concentration at which growth counts as inhibited. On to `Cc1nc(-c2ccc(OCCCCC(C)(C)C)cc2)nc(C)c1C(=O)N[C@@H](CCN)C(=O)N(C)[C@@H]1C(=O)N[C@@H](C)C(=O)N[C@H](C(=O)NCC#N)Cc2ccc(OCCN)c(c2)-c2cc1ccc2OCCN` (racemic) [Compound 357, rac-(8S,11S,14S)-3,18-bis(2-aminoethoxy)-N-(cyanomethyl)-11-methyl-14-[methyl-[rac-(2S)-4-amino-2-[[2-[4-(5,5-dimethylhexoxy)phenyl]-4,6-dimethyl-pyrimidine-5-carbonyl]amino]butanoyl]amino]-10,13-dioxo-9,12-diazatricyclo[13.3.1.12,6]icosa-1(18),2(20),3,5,15(19),16-hexaene-8-carboxamide], for which the MIC was 0.19 µM.
Consider `C[C@@H]1NC(=O)[C@@H](N(C)C(=O)[C@H](CCN)NC(=O)c2c(N)cc(-c3ccc(C(C)(C)C)cc3)nc2N)c2ccc(OCCN)c(c2)-c2cc(ccc2OCCN)C[C@@H](C(=O)NCC#N)NC1=O` (racemic) [Compound 520, rac-(8S,11S,14S)-3,18-bis(2-aminoethoxy)-N-(cyanomethyl)-11-methyl-14-[methyl-[rac-(2S)-4-amino-2-[[2,4-diamino-6-(4-tert-butylphenyl)pyridine-3-carbonyl]amino]butanoyl]amino]-10,13-dioxo-9,12-diazatricyclo[13.3.1.12,6]icosa-1(18),2(20),3,5,15(19),16-hexaene-8-carboxamide], for which the MIC is 1 µM.
On the same count and under the same terms, under `Cc1nc(-c2ccc(OCCC(C)(C)C)cc2)nc(N)c1C(=O)N[C@@H](CCN)C(=O)N(C)[C@@H]1C(=O)N[C@@H](C)C(=O)N[C@H](C(=O)NCC#N)Cc2ccc(OCCCN)c(c2)-c2cc1ccc2OCCCN` (racemic) [Compound 436, rac-(8S,11S,14S)-3,18-bis(3-aminopropoxy)-N-(cyanomethyl)-11-methyl-14-[methyl-[rac-(2S)-4-amino-2-[[4-amino-2-[4-(3,3-dimethylbutoxy)phenyl]-6-methyl-pyrimidine-5-carbonyl]amino]butanoyl]amino]-10,13-dioxo-9,12-diazatricyclo[13.3.1.12,6]icosa-1(18),2(20),3,5,15(19),16-hexaene-8-carboxamide] stands 0.063 µM; under `Cc1nc(-c2cnc(C(C)(C)C)nc2)nc(C)c1C(=O)N[C@@H](CCN)C(=O)N(C)[C@@H]1C(=O)N[C@@H](C)C(=O)N[C@H](C(=O)NCC#N)Cc2ccc(OCCN)c(c2)-c2cc1ccc2OCCN` (racemic) [Compound 540, rac-(8S,11S,14S)-3,18-bis(2-aminoethoxy)-N-(cyanomethyl)-11-methyl-14-[methyl-[rac-(2S)-4-amino-2-[[2-(2-tert-butylpyrimidin-5-yl)-4,6-dimethyl-pyrimidine-5-carbonyl]amino]butanoyl]amino]-10,13-dioxo-9,12-diazatricyclo[13.3.1.12,6]icosa-1(18),2(20),3,5,15(19),16-hexaene-8-carboxamide], 1.5 µM.

The experiment is the same for the next values; noted with them: Escherichia coli, ATCC25922, 22 h, Table 7, cation adjusted Mueller Hinton Broth + 0.002% Tween-80, 35° C.
With `Cc1nc(-c2ccc(C(C)(C)C)cc2)nc(C)c1C(=O)N[C@@H](CCN)C(=O)N(C)[C@@H]1C(=O)N[C@@H](C)C(=O)N[C@H](C(=O)NCC#N)Cc2ccc(OC[C@@H](N)CO)c(c2)-c2cc1ccc2O` (racemic) [Compound 613, rac-(8S,11S,14S)-N-(cyanomethyl)-18-hydroxy-11-methyl-14-[methyl-[rac-(2S)-4-amino-2-[[2-(4-tert-butylphenyl)-4,6-dimethyl-pyrimidine-5-carbonyl]amino]butanoyl]amino]-10,13-dioxo-3-[rac-(2S)-2-amino-3-hydroxy-propoxy]-9,12-diazatricyclo[13.3.1.12,6]icosa-1(18),2(20),3,5,15(19),16-hexaene-8-carboxamide], the MIC was 0.75 µM.
On the same count and under the same terms, under `Cc1nc(-c2ccc(C(C)(C)C)cc2)nc(C)c1C(=O)N[C@@H](CNS(N)(=O)=O)C(=O)N(C)[C@@H]1C(=O)N[C@@H](C)C(=O)N[C@H](C(=O)NCC#N)Cc2ccc(OCCN)c(c2)-c2cc1cc(OCCN)c2O` (racemic) [Compound 584, rac-(8S,11S,14S)-3,17-bis(2-aminoethoxy)-N-(cyanomethyl)-18-hydroxy-11-methyl-14-[methyl-[rac-(2S)-2-[[2-(4-tert-butylphenyl)-4,6-dimethyl-pyrimidine-5-carbonyl]amino]-3-(sulfamoylamino)propanoyl]amino]-10,13-dioxo-9,12-diazatricyclo[13.3.1.12,6]icosa-1(18),2(20),3,5,15(19),16-hexaene-8-carboxamide] stands 0.5 µM.
As to `Cc1nc(-c2ccc(C(C)(C)C)cc2)nc(C)c1C(=O)N[C@@H](CCNS(N)(=O)=O)C(=O)N(C)[C@@H]1C(=O)N[C@@H](C)C(=O)N[C@H](C(=O)NCC#N)Cc2ccc(OC[C@H](O)CN)c(c2)-c2cc1ccc2OC[C@H](O)CN` (racemic) [Compound 580, rac-(8S,11S,14S)-N-(cyanomethyl)-11-methyl-14-[methyl-[rac-(2S)-2-[[2-(4-tert-butylphenyl)-4,6-dimethyl-pyrimidine-5-carbonyl]amino]-4-(sulfamoylamino)butanoyl]amino]-10,13-dioxo-3,18-bis[rac-(2R)-3-amino-2-hydroxy-propoxy]-9,12-diazatricyclo[13.3.1.12,6]icosa-1(18),2(20),3,5,15(19),16-hexaene-8-carboxamide], the MIC was 0.58 µM.
The same measure, in the same setting: as for `CCCCCOc1ccc(-c2nc(C)c(C(=O)N[C@@H](CCN)C(=O)N(C)[C@@H]3C(=O)N[C@@H](C)C(=O)N[C@H](C(=O)NCC#N)Cc4ccc(O)c(c4)-c4cc3ccc4OCCCN)c(C)n2)cc1` (racemic) [Compound 598, rac-(8S,11S,14S)-18-(3-aminopropoxy)-N-(cyanomethyl)-3-hydroxy-11-methyl-14-[methyl-[rac-(2S)-4-amino-2-[[4,6-dimethyl-2-(4-pentoxyphenyl)pyrimidine-5-carbonyl]amino]butanoyl]amino]-10,13-dioxo-9,12-diazatricyclo[13.3.1.12,6]icosa-1(18),2(20),3,5,15(19),16-hexaene-8-carboxamide], the figure is 0.094 µM; as for `Cc1nc(-c2ccc(C(C)(C)C)cc2)nc(C)c1C(=O)N[C@@H](CCN)C(=O)N(C)[C@@H]1C(=O)N[C@@H](C)C(=O)N[C@H](C(=O)NCC#N)Cc2ccc(OC3CCNCC3)c(c2)-c2cc1ccc2O` (racemic) [Compound 609, rac-(8S,11S,14S)-N-(cyanomethyl)-18-hydroxy-11-methyl-14-[methyl-[rac-(2S)-4-amino-2-[[2-(4-tert-butylphenyl)-4,6-dimethyl-pyrimidine-5-carbonyl]amino]butanoyl]amino]-10,13-dioxo-3-(4-piperidyloxy)-9,12-diazatricyclo[13.3.1.12,6]icosa-1(18),2(20),3,5,15(19),16-hexaene-8-carboxamide], 0.5 µM.
Same read-out and setting: under `Cc1nc(-c2ccc(C(C)(C)C)cc2)nc(C)c1C(=O)N[C@@H](CCNS(N)(=O)=O)C(=O)N(C)[C@@H]1C(=O)N[C@@H](C)C(=O)N[C@H](C(=O)NCC#N)Cc2ccc(OCCN)c(c2)-c2cc1ccc2OCCN` (racemic) [Compound 574, rac-(8S,11S,14S)-3,18-bis(2-aminoethoxy)-N-(cyanomethyl)-11-methyl-14-[methyl-[rac-(2S)-2-[[2-(4-tert-butylphenyl)-4,6-dimethyl-pyrimidine-5-carbonyl]amino]-4-(sulfamoylamino)butanoyl]amino]-10,13-dioxo-9,12-diazatricyclo[13.3.1.12,6]icosa-1(18),2(20),3,5,15(19),16-hexaene-8-carboxamide] stands 0.5 µM.

The same experiment, now with this note: Escherichia coli, ATCC25922, Table 6, cation adjusted Mueller Hinton Broth + 0.002% Tween-80, 35° C., 22 hours.
As for `Cc1nc(-c2ccc(C3(C4CCCC4)CC3)cc2)nc(C)c1C(=O)N[C@@H](CCN)C(=O)N(C)[C@@H]1C(=O)N[C@@H](C)C(=O)N[C@H](C(=O)NCC#N)Cc2ccc(OCCN)c(c2)-c2cc1ccc2OCCN` (racemic) [Compound 286, rac-(8S,11S,14S)-3,18-bis(2-aminoethoxy)-N-(cyanomethyl)-11-methyl-14-[methyl-[rac-(2S)-4-amino-2-[[2-[4-(1-cyclopentylcyclopropyl)phenyl]-4,6-dimethyl-pyrimidine-5-carbonyl]amino]butanoyl]amino]-10,13-dioxo-9,12-diazatricyclo[13.3.1.12,6]icosa-1(18),2(20),3,5,15(19),16-hexaene-8-carboxamide], the MIC is 0.13 µM.
Consider `CC(=O)NCC[C@H](NC(=O)c1c(C)nc(-c2ccc(OC3CCCCC3)cc2)nc1C)C(=O)N(C)[C@@H]1C(=O)N[C@@H](C)C(=O)N[C@H](C(=O)NCC#N)Cc2ccc(OCCN)c(c2)-c2cc1ccc2OCCN` [Compound 496, (8S,11S,14S)-14-[[(2S)-4-acetamido-2-[[2-[4-(cyclohexoxy)phenyl]-4,6-dimethyl-pyrimidine-5-carbonyl]amino]butanoyl]-methyl-amino]-3,18-bis(2-aminoethoxy)-N-(cyanomethyl)-11-methyl-10,13-dioxo-9,12-diazatricyclo[13.3.1.12,6]icosa-1(18),2(20),3,5,15(19),16-hexaene-8-carboxamide], for which the MIC is 1 µM.
For the compound `Cc1nc(-c2ccc(OC3CCCCC3)cc2)nc(C)c1C(=O)N[C@@H](CCNC=O)C(=O)N(C)[C@@H]1C(=O)N[C@@H](C)C(=O)N[C@H](C(=O)NCC#N)Cc2ccc(OCCN)c(c2)-c2cc1ccc2OCCN` (racemic) [Compound 504, rac-(8S,11S,14S)-3,18-bis(2-aminoethoxy)-N-(cyanomethyl)-11-methyl-14-[methyl-[rac-(2S)-2-[[2-[4-(cyclohexoxy)phenyl]-4,6-dimethyl-pyrimidine-5-carbonyl]amino]-4-formamido-butanoyl]amino]-10,13-dioxo-9,12-diazatricyclo[13.3.1.12,6]icosa-1(18),2(20),3,5,15(19),16-hexaene-8-carboxamide], the MIC was 0.75 µM.
